In publication PMC10353390, “Biological and Structural Analyses of New Potent Allosteric Inhibitors of HIV-1 Integrase” (Antimicrobial Agents and Chemotherapy, 2023):
Like-named read-outs stand apart in the source and are kept apart here.

Experiments:
[1] = target: HIV-1 IN-LEDGF/p75 interaction (Human immunodeficiency virus type 1 group M subtype B, UniProt P12497); assay: biochemical
Procedure: The INLAIs were tested for the ability to inhibit the HIV-1 IN-LEDGF/p75 interaction in a homogeneous time-resolved fluorescence (HTRF) assay. Our assays used either full-length IN and LEDGF/p75 proteins or their respective minimally sufficient interaction domains: the CCD of HIV-1 IN and the IBD of LEDGF/p75 (Table 1).
HTRF-based CCD-IBD interaction, IN-LEDGF/p75 interaction and IN multimerization assays were performed as described previously ([12]).

[2] = tested on: lab-adapted and clinical HIV-1 isolates; assay: Infection assays in primary T CD4+ lymphocytes; format: cell-based; details: Human immunodeficiency virus 1, Lymphocyte
[3] = tested on: primary HIV-1 isolates with polymorphisms at IN positions 124 and 125; assay: Multiple-round infection of MT4 cells with primary HIV-1 isolates polymorphic at IN positions 124 and 125; format: cell-based; details: primary isolate
Summary of the method: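 Exponentially growing MT4 cells at 10^6/mL infected for 2 h at MOI 0.001 in the presence of varying compound concentrations. Cell viability quantified by CellTiter-Glo luminescence.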

[4] = tested on: NL4-3 HIV-1 with INLAI-selected IN single point mutations; format: cell-based

Structure (SMILES): Cc1ccc(C2CC2)c(-c2ccc3c(c2)CCCO3)c1[C@H](OC(C)(C)C)C(=O)O [BDM-2]
- IC50 [1]: 47 ± 14 nM
- EC50 ([2]; read-out: EC50 33913N (B)): 4.2 ± 1.6 nM
- EC50 ([2]; read-out: EC50 HXB2 (B)): 3.4 ± 1 nM
- EC50 ([2]; read-out: EC50 KER2008 (A)): 8.1 ± 1.3 nM
- EC50 ([2]; read-out: EC50 NL4-3 (B)): 8.3 ± 4.3 nM
- EC50 ([2]; read-out: EC50 NP1525 (CRF01_AE)): 11 ± 5 nM
- EC50 ([2]; read-out: EC50 NP1538 (B)): 13 ± 6 nM
- Fold change in EC50 relative to parental NL4-3, CAM2BBY (CRF02) ([3]; IN 124/125 AA): 2
- Fold change in EC50 relative to parental NL4-3, E0836M4 (D) ([3]; IN 124/125 AA): 1
- Fold change in EC50 relative to parental NL4-3, KER2008 (A) ([3]; IN 124/125 AA): 1
- Fold change in EC50 relative to parental NL4-3, NP1525 (CRF01) ([3]; IN 124/125 AA): 1
- Fold change in EC50 relative to parental NL4-3, NP1695 (CRF02) ([3]; IN 124/125 AA): 2
- Fold change in EC50 relative to parental NL4-3, TZA125 (C) ([3]; IN 124/125 AA): 0.4
- Fold change in EC50 relative to parental NL4-3, KSM4030 (A) ([3]; IN 124/125 GA): 2
- Fold change in EC50 relative to parental NL4-3, vGA (C) ([3]; IN 124/125 GA): 4
- Fold change in EC50 relative to parental NL4-3, 99ET14 (C) ([3]; IN 124/125 NA): 1
- Fold change in EC50 relative to parental NL4-3, NP1538 (B) ([3]; IN 124/125 NA): 2
- Fold change in EC50 relative to parental NL4-3, vNA_1 (B) ([3]; IN 124/125 NA): 2
- Fold change in EC50 relative to parental NL4-3, vNA_2 (CRF02) ([3]; IN 124/125 NA): 3
- Fold change in EC50 relative to parental NL4-3, vNV (B) ([3]; IN 124/125 NV): 2
- Fold change in EC50 relative to parental NL4-3, vSA_1 (B) ([3]; IN 124/125 SA): 3
- Fold change in EC50 relative to parental NL4-3, vSA_2 (CRF02) ([3]; IN 124/125 SA): 3
- Fold change in EC50 relative to parental NL4-3, vTA_1 (B) ([3]; IN 124/125 TA): 2
- Fold change in EC50 relative to parental NL4-3, vTA_2 (CRF02) ([3]; IN 124/125 TA): 1
- EC50 fold change compared to wild type NL4-3, A128T [4]: 4
- EC50 fold change compared to wild type NL4-3, H171Q [4]: 3
- EC50 fold change compared to wild type NL4-3, N222K [4]: 2
- EC50 fold change compared to wild type NL4-3, T174I [4]: 253
- EC50 fold change compared to wild type NL4-3, Y99H [4]: 4
